For the assay, the target named is T1, human 5-HT6 receptor (Homo sapiens, UniProt P50406).
T1 construct: host or cells: CHO-K1 cells, stably transfected; membranes prepared in house
The experiment in a line: Human 5-HT6 Receptor Binding Assay ([3H]LSD displacement, scintillation beads). The following applies: membranes of CHO-K1 cells with recombinant human 5-HT6, 4 nM [3H]LSD, read-out: h5-HT6 (Ki).

Counter-ions that a name gives are not always drawn. Like-named read-outs stand apart in the source and are kept apart here.

T1 sequence (P50406 whole entry): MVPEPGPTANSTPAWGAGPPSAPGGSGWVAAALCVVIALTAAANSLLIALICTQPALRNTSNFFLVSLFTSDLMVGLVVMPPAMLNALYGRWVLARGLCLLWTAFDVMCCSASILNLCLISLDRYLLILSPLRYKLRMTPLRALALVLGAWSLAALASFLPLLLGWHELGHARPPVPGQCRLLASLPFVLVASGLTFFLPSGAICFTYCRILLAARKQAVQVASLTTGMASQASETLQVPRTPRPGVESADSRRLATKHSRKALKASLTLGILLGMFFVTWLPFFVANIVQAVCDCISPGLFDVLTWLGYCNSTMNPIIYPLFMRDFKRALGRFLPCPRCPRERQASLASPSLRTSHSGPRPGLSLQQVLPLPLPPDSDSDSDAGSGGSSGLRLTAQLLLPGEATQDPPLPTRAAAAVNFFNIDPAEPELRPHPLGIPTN

Regarding `O=S(=O)(c1cccc(F)c1)c1ccc2c3c(oc2c1)C1(CCCC1)NCC3` [Example 28, 7-[(3-fluorophenyl)sulfonyl]-3,4-dihydro-2H-spiro[1-benzofuro[2,3-c]pyridine-1,1′-cyclopentane]], for the setting “Table 1, class symbols”, the inhibition constant (Ki) is less than 500 nM. On the same count and under the same terms, in the case of `CC(=O)N1CCc2c(oc3cc(S(=O)(=O)c4ccccc4)ccc23)C1` [Example 614, 1-[7-(Phenylsulfonyl)-3,4-dihydro[1]benzofuro[2,3-c]pyridin-2(1H)-yl]ethanone trifluoroacetate] it was less than 500 nM; in that of `CC12CCNCC1Oc1ccc(S(=O)(=O)c3cc[n+]([O-])cc3)cc12` (racemic) [Example 14, 4a-methyl-6-[(1-oxidopyridin-4-yl)sulfonyl]-1,2,3,4,4a,9a-hexahydro[1]benzofuro[2,3-c]pyridine], more than 1000 nM. Consider `O=S(=O)(c1ccc2c3c(oc2c1)CNCC3)c1cccc2cccnc12` [Example 346], for which the Ki (Table 1, class symbols) was less than 500 nM. For the compound `CC(=O)NCCC1NCCc2c1oc1cc(S(=O)(=O)c3cccc(Cl)c3)ccc21` (racemic) [Example 540, N-(2-{7-[(3-chlorophenyl)sulfonyl]-1,2,3,4-tetrahydro[1]benzofuro[2,3-c]pyridin-1-yl}ethyl)acetamide], the Ki (Table 1, class symbols) is less than 500 nM. With `CC12CCNCC1Oc1ccc(OS(=O)(=O)c3cc4ccccc4o3)cc12` (stereo not shown) [Example 764], the Ki (Table 1, class symbols) was 500 to 1000 nM. `O=S(=O)(c1ccc(F)cc1)c1ccc2c3c(oc2c1)CNCC3` [Example 213]: under “Table 1, class symbols”, the Ki is less than 500 nM.

Turning to `O=S(=O)(c1ccc2c(c1)OC1CNCCC21)c1cccc2c1CCO2` (stereo not shown) [Example 405], for the setting “Table 1, class symbols”, the Ki lay within 500 to 1000 nM. Turning to `Cc1cccc(S(=O)(=O)c2ccc3c4c(oc3c2)C(C)(C)NCC4)n1` [Example 19, 1,1-dimethyl-7-[(6-methylpyridin-2-yl)sulfonyl]-1,2,3,4-tetrahydro[1]benzofuro[2,3-c]pyridine], the Ki (Table 1, class symbols) was less than 500 nM. Same read-out and setting: in the case of `O=S(=O)(c1ccc2c3c(oc2c1)CNCC3)c1ccccn1` [Example 345] it was less than 500 nM; in that of `O=S(=O)(c1cccc(OC(F)(F)F)c1)c1ccc2c(c1)OC1CNCCC21` (stereo not shown) [Example 149, 7-{[3-(trifluoromethoxy)phenyl]sulfo-nyl}-1,2,3,4,4a,9a-hexahydro[1]benzofuro[2,3-c]pyridine], less than 500 nM; in that of `O=S(=O)(c1ccc2oc3c(c2c1)CCNC3)c1cccc2cccnc12` [Example 354], less than 500 nM.

As for `O=S(=O)(c1ccc2c3c(oc2c1)CNCC3)c1cccc(Cl)c1Cl` [Example 196, 7-[(2,3-dichlorophenyl)sulfonyl]-1,2,3,4-tetrahydro[1]benzofuro[2,3-c]pyridine], under “Table 1, class symbols”, the Ki is less than 500 nM. As to `O=S(=O)(c1cccc(OC(F)(F)F)c1)c1ccc2c(c1)OC1CNCCC21` (stereo not shown) [Example 166, 7-{[3-(trifluoromethoxy)phenyl]sulfo-nyl}-1,2,3,4,4a,9a-hexahydro[1]benzofuro[2,3-c]pyridine], the inhibitory constant (Ki) (Table 1, class symbols) was less than 500 nM. On the same count and under the same terms, then `O=S(=O)(Oc1ccc2c(c1)OC1CNCCC21)c1cccc2cccnc12` (stereo not shown) [Example 662], with less than 500 nM; and `O=S(=O)(c1ccccc1)c1ccc2c(c1)C1CCNCC1O2` (stereo not shown) [Example 337, 6-(phenylsulfonyl)-1,2,3,4,4a,9a-hexahydro[1]benzofuro[2,3-c]pyridine], with more than 1000 nM.

Take `O=S(=O)(c1cccc(F)c1)c1ccc2c3c([nH]c2c1)C(C(F)(F)F)NCC3` (stereo not drawn) [Example 527, 7-[(3-fluorophenyl)sulfonyl]-1-(trifluoromethyl)-2,3,4,9-tetrahydro-1H-beta-carboline]: the inhibitory constant (Ki) (specific data) worked out at 93 nM. Regarding `Cc1c(OCc2cccnc2)cccc1S(=O)(=O)c1ccc2c(c1)OC1CNCCC21` (stereo not shown) [Example 566], under “Table 1, class symbols”, the Ki is less than 500 nM.

For `O=S(=O)(c1cccc(OCc2cccnc2)c1)c1ccc2c(c1)OC1CNCCC21` (stereo not shown) [Example 559], the Ki (Table 1, class symbols) is less than 500 nM. The same measure, in the same setting: in the case of `O=S(=O)(c1cccc(F)c1)c1ccc2oc3c(c2c1)CCNC3C1CCOC1` (stereo not shown) [Example 516] it was less than 500 nM; in that of `COCC1NCCc2c1oc1cc(S(=O)(=O)c3cccc(F)c3)ccc21` (stereo not shown) [Example 498], less than 500 nM; in that of `COc1cc(S(=O)(=O)c2ccc3c4c(oc3c2)C(C)(C)NCC4)c[n+]([O-])c1` [Example 369], more than 1000 nM. Still for that read-out and setting: in the case of `O=S(=O)(c1ccc2c3c(oc2c1)CNCC3)c1cccnc1OCC(F)(F)F` [Example 440] it was less than 500 nM.

`CC1(C)NCCc2c1oc1cc(S(=O)(=O)c3cccc(F)c3)ccc21` [Example 1, 7-[(3-Fluorophenyl)sulfonyl]-1,1-dimethyl-1,2,3,4-tetrahydro[1]benzofuro[2,3-c]pyridine]: the Ki was less than 500 nM (Table 1, class symbols) and 1.5 nM (specific data).

As for `COCC1(COC)NCCc2c1oc1cc(S(=O)(=O)c3cccc(F)c3)ccc21` [Example 39, 7-[(3-fluorophenyl)sulfonyl]-1,1-bis(methoxymethyl)-1,2,3,4-tetrahydro[1]benzofuro[2,3-c]pyridine], the Ki (Table 1, class symbols) is less than 500 nM. Take `O=S(=O)(c1cccc(C(F)(F)F)c1)c1ccc2c3c(oc2c1)CNCC3` [Example 192]: the Ki (Table 1, class symbols) was less than 500 nM. On the same count and under the same terms, then `COc1cccc(S(=O)(=O)c2ccc3c(c2)C2CCNCC2O3)c1` (stereo not shown) [Example 178], with less than 500 nM. On the same count and under the same terms, in the case of `Cc1ccc(S(=O)(=O)c2ccc3oc4c(c3c2)CCNC4)cc1` [Example 252] it was less than 500 nM; in that of `CCOc1cccc(S(=O)(=O)c2ccc3c(c2)OC2CNCCC32C)c1` (racemic) [Example 10, 7-[(3-ethoxyphenyl)sulfonyl]-4a-methyl-1,2,3,4,4a,9a-hexahydro[1]benzofuro[2,3-c]pyridine], less than 500 nM; in that of `O=S(=O)(CCc1ccccc1)Oc1ccc2c(c1)C1CCNCC1O2` (stereo not shown) [Example 755], more than 1000 nM.

For the compound `O=S(=O)(c1ccc2c(c1)OC1CNCCC21)c1ccc2ccccc2c1` (stereo not shown) [Example 122], the Ki (Table 1, class symbols) was less than 500 nM. Same read-out and setting: in the case of `O=S(=O)(c1ccncc1)c1ccc2c(c1)OC1CNCCC21` (stereo not shown) [Example 330] it was more than 1000 nM. With `O=S(=O)(c1ccc2ccccc2c1)c1ccc2oc3c(c2c1)CCNC3` [Example 251], the Ki (Table 1, class symbols) is less than 500 nM. With `O=S(=O)(c1ccc2ccccc2c1)c1cccc2c1OC1CNCCC21` (stereo not shown) [Example 189], for the setting “Table 1, class symbols”, the Ki is less than 500 nM.

On to `Cc1oncc1S(=O)(=O)Oc1ccc2c(c1)OC1CNCCC21` (stereo not shown) [Example 640], for which, where the note is “Table 1, class symbols”, the Ki was more than 1000 nM. Take `COc1cccc(COc2cccc(S(=O)(=O)c3ccc4c(c3)OC3CNCCC43)c2)c1` (stereo not shown) [Example 575]: for the setting “Table 1, class symbols”, the Ki is less than 500 nM. For `O=S(=O)(c1ccc2c(c1)C1CCNCC1O2)N1CCc2ccccc2C1` (stereo not shown) [Example 856], the Ki (Table 1, class symbols) was less than 500 nM. On to `Cc1ccc(F)cc1S(=O)(=O)c1ccc2c3c(oc2c1)CNCC3` [Example 206], for which, for the setting “Table 1, class symbols”, the Ki was less than 500 nM. On the same count and under the same terms, then `[O-][S+](c1ccc2c(c1)OC1CNCCC21)c1cccc(F)c1F` (stereo not shown) [Example 384], with less than 500 nM.

With `CC1(C)NCCc2c1oc1cc(S(=O)(=O)c3cc(Cl)cnc3N)ccc21` [Example 372], under “Table 1, class symbols”, the Ki is less than 500 nM. Still for that read-out and setting: in the case of `O=S(=O)(Cc1ccccc1)Oc1ccc2c(c1)OC1CNCCC21` (stereo not shown) [Example 637] it was more than 1000 nM; in that of `O=S(=O)(c1cc(F)cc(Cl)c1)c1ccc2c3c(oc2c1)CNCC3` [Example 207], less than 500 nM. As to `[O-][S+](c1ccc(Cl)c(C(F)(F)F)c1)c1ccc2c3c(oc2c1)CNCC3` (stereo not shown) [Example 209], for the setting “Table 1, class symbols”, the Ki was less than 500 nM. Turning to `CC1(C)NCCc2c1oc1cc(S(=O)(=O)c3cccc(C(F)(F)F)c3)ccc21` [Example 289], where the note is “Table 1, class symbols”, the Ki was less than 500 nM. Consider `CC1(C)NCCC2c3ccc(S(=O)(=O)c4cccc(F)c4)cc3OC21` (stereo not shown) [Example 624, 7-[(3-Fluorophenyl)sulfonyl]-1,1-dimethyl-1,2,3,4,4a,9a-hexahydro[1]benzofuro[2,3-c]pyridine], for which the Ki (Table 1, class symbols) is less than 500 nM. For `Cc1cc(S(=O)(=O)c2ccc3c4c(oc3c2)CNCC4)ccc1F` [Example 218], where the note is “Table 1, class symbols”, the Ki is less than 500 nM.

On to `CC(C)Oc1ccccc1S(=O)(=O)c1ccc2c(c1)OC1CNCCC21` (stereo not shown) [Example 419], for which, under “Table 1, class symbols”, the Ki is less than 500 nM. `O=S(=O)(c1ccc2oc3c(c2c1)CCNC3)C1CCCCC1` [Example 280]: for the setting “Table 1, class symbols”, the inhibition constant Ki is more than 1000 nM. On the same count and under the same terms, then `CC(C)Oc1cc(F)cc(S(=O)(=O)c2ccc3c(c2)OC2CNCCC32C)c1` (stereo not shown) [Example 427], with less than 500 nM. The same measure, in the same setting: in the case of `[O-][S+](c1ccc2oc3c(c2c1)CCNC3)c1ccccc1-c1ccccc1` (stereo not shown) [Example 279] it was less than 500 nM; in that of `O=[N+]([O-])c1ccc(S(=O)(=O)c2ccc3c4c(oc3c2)CNCC4)cc1` [Example 205], less than 500 nM; in that of `CC12CCNCC1Oc1ccc(OS(=O)(=O)Cc3cccc(C(F)(F)F)c3)cc12` (stereo not shown) [Example 788], less than 500 nM. As for `COc1ccc(S(=O)(=O)c2ccc3oc4c(c3c2)CCNC4)cc1` [Example 245], the Ki (Table 1, class symbols) was less than 500 nM. As to `[O-][S+](c1ccc(OC(F)(F)F)cc1)c1ccc2c3c(oc2c1)CNCC3` (stereo not shown) [Example 226, 7-{[4-(trifluoromethoxy)phenyl]sulfi-nyl}-1,2,3,4-tetrahydro[1]benzofuro[2,3-c]pyridine], the Ki (Table 1, class symbols) was more than 1000 nM.

Take `O=S(=O)(Oc1ccc2c(c1)C1CCNCC1O2)c1cccc(F)c1` (stereo not shown) [Example 701]: the Ki (Table 1, class symbols) was more than 1000 nM. `O=S(=O)(c1ccc2c(c1)OC1CNCCC21)c1cccnc1OCC(F)(F)F` (stereo not shown) [Example 394]: under “Table 1, class symbols”, the inhibitory constant (Ki) is less than 500 nM. On the same count and under the same terms, then `CC(C)C1NCCc2c1oc1ccc(S(=O)(=O)c3cccc(F)c3)cc21` (stereo not shown) [Example 512], with less than 500 nM. On the same count and under the same terms, then `CC(=O)N1CCC2c3cc(NS(=O)(=O)c4ccc5ccccc5c4)ccc3OC2C1` (stereo not shown) [Example 814, N-(2-Acetyl-1,2,3,4,4a,9a-hexahydro[1]benzofuro[2,3-c]pyridin-6-yl)naphthalene-2-sulfonamide], with more than 1000 nM; and `COC(=O)c1cccc(S(=O)(=O)c2ccc3oc4c(c3c2)CCNC4)c1` [Example 269], with 500 to 1000 nM; and `O=S(=O)(c1cccc(Cl)c1)c1ccc2c3c([nH]c2c1)C1(CCCOC1)NCC3` (single isomer, unassigned) [Example 316], with less than 500 nM.

By Ki is commonly meant the dissociation constant of the complex between target and ligand, obtained from inhibition or displacement.

Source of the values: patent publication US8765779B2, “Tricyclic derivatives and their pharmaceutical use and compositions” (Cephalon, Inc., priority 2009, dated 2014).
